Data reported in PubChem BioAssay (NCI).
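Method: 48-hour compound exposure of cells in 96-well plates, five concentrations, linear interpolation of endpoints. At the TGI there is no net growth.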

How the values were obtained:
Assay in all cases: inhibition of tumour cell growth, NCI panel, 48 h
UO-31 renal = test system: UO-31 renal
MCF7 breast = test system: MCF7 breast
OVCAR-3 ovarian = test system: OVCAR-3 ovarian
SK-MEL-5 melanoma = test system: SK-MEL-5 melanoma
K-562 leukemia = test system: K-562 leukemia
MDA-MB-435 = test system: MDA-MB-435
A498 renal = test system: A498 renal
LOX IMVI melanoma = test system: LOX IMVI melanoma
UACC-257 melanoma = test system: UACC-257 melanoma
SW-620 colon = test system: SW-620 colon
HCT-15 colon = test system: HCT-15 colon
OVCAR-8 ovarian = test system: OVCAR-8 ovarian
M14 melanoma = test system: M14 melanoma
HL-60(TB) leukemia = test system: HL-60(TB) leukemia
A549 NSCLC = test system: A549 NSCLC
SK-MEL-28 melanoma = test system: SK-MEL-28 melanoma
CCRF-CEM leukemia = test system: CCRF-CEM leukemia
786-0 renal = test system: 786-0 renal
SR leukemia = test system: SR leukemia
BT-549 breast = test system: BT-549 breast

SMILES | TGI (UO-31 renal) [µM] | TGI (MCF7 breast) [µM] | TGI (OVCAR-3 ovarian) [µM] | TGI (SK-MEL-5 melanoma) [µM] | TGI (K-562 leukemia) [µM] | TGI (MDA-MB-435) [µM] | TGI (A498 renal) [µM] | TGI (LOX IMVI melanoma) [µM] | TGI (UACC-257 melanoma) [µM] | TGI (SW-620 colon) [µM] | TGI (HCT-15 colon) [µM] | TGI (OVCAR-8 ovarian) [µM] | TGI (M14 melanoma) [µM] | TGI (HL-60(TB) leukemia) [µM] | TGI (A549 NSCLC) [µM] | TGI (SK-MEL-28 melanoma) [µM] | TGI (CCRF-CEM leukemia) [µM] | TGI (786-0 renal) [µM] | TGI (SR leukemia) [µM] | TGI (BT-549 breast) [µM]
CCOC(=O)CCC(NC(=O)c1ccc(Oc2nc3ccccc3nc2-c2ccccc2)cc1)C(=O)OCC (configuration not stated) | > 100 | > 100 | > 64.8 | > 100 | > 100 | > 100 | > 100 | > 100 | > 100 | > 100 | > 100 | 16 | > 100 | > 100 | > 100 | > 100 | > 100 | > 28.7 | > 100 | –
O=C(CC(C(=O)c1cccs1)c1cccs1)c1ccsc1 (configuration not stated) | > 100 | > 100 | – | > 100 | > 100 | 43.1 | > 100 | > 100 | > 100 | > 100 | > 100 | > 100 | > 100 | 95 | > 100 | > 100 | > 100 | > 100 | > 100 | –
COc1ccc(P2(=S)Oc3ccccc3-c3ccccc3O2)cc1 | – | > 40.4 | 0.493 | > 79.7 | > 100 | – | 4.01 | > 100 | > 100 | > 100 | > 100 | > 40.6 | > 100 | – | > 54.9 | > 100 | > 100 | > 100 | – | > 100
Oc1c(Cl)c(Cl)c(O)c(CCNc2ccc3ncccc3c2)c1Cl | 31.2 | 30.8 | 35 | 5.52 | > 100 | 18.8 | – | – | 43.6 | 95.6 | 30 | 50.6 | 27.1 | > 100 | 47.3 | 54.6 | – | 34.3 | 28 | –
C/C=C1\C=C(OC)CN(CCc2c[nH]c3ccccc23)C1 | > 100 | – | > 100 | 53.3 | > 100 | – | > 100 | > 100 | > 100 | > 100 | > 100 | > 100 | 95.6 | > 100 | > 100 | – | > 100 | > 100 | > 100 | –
Cc1cc(C)c(S(=O)(=O)N2CCCN(S(=O)(=O)c3c(C)cc(C)cc3C)OCCCO2)c(C)c1 | > 100 | > 100 | > 100 | > 100 | > 100 | > 100 | > 100 | > 100 | > 100 | > 100 | > 100 | > 100 | > 100 | > 100 | > 100 | > 100 | > 100 | > 100 | – | > 100
CO[C@@H]1C[C@H]2[C@@H]3CC[C@H]([C@@H](C)CO)[C@@]3(C)CC[C@@H]2[C@@]2(C)CC[C@H]3C[C@]312 | 98.8 | 31.8 | > 100 | 31.1 | 60.5 | > 100 | > 100 | 34.6 | 71.9 | > 100 | > 100 | > 100 | 69.8 | 76.3 | > 100 | 83.5 | > 100 | > 100 | > 100 | –
C/C(=N\n1c(Cc2ccccc2)n[nH]c1=O)c1ccccc1 | > 100 | > 100 | – | > 100 | > 100 | > 100 | > 100 | > 100 | > 100 | > 100 | > 100 | > 100 | > 100 | > 100 | > 100 | > 100 | > 100 | > 100 | – | > 100
CC1C/C(=C\c2ccc(OC(=O)C(C)(C)C)cc2)C(=O)/C(=C/c2ccc(OC(=O)C(C)(C)C)cc2)C1 (configuration not stated) | – | > 100 | > 100 | > 100 | > 100 | > 100 | > 100 | > 100 | > 100 | > 100 | > 100 | 86.6 | > 100 | 62.3 | > 100 | > 100 | 6.25 | > 100 | > 100 | –
CC(=O)[C@@H]1C/C(=C\OCc2ccccc2)O[C@H]1C | > 100 | – | > 100 | > 100 | > 100 | > 100 | > 100 | > 100 | > 100 | > 100 | > 100 | > 100 | > 100 | – | > 100 | > 100 | – | > 100 | – | > 100
CN1C/C(=C\c2cccs2)C2=NN(C)C(c3cccs3)C2C1 (configuration not stated) | > 100 | > 100 | > 100 | > 100 | > 100 | > 100 | > 100 | > 100 | > 100 | > 100 | > 100 | > 100 | > 100 | 43.6 | > 100 | > 100 | > 100 | > 100 | – | > 100
Cn1c(=O)n2n(c1=O)C(S(=O)(=O)c1ccccc1)C2 (configuration not stated) | > 100 | > 100 | > 100 | > 100 | > 100 | > 100 | – | > 100 | > 100 | > 100 | > 100 | > 100 | > 100 | – | > 100 | > 100 | > 100 | > 100 | – | > 100
COc1ccc(/C=C2\CN(C)C/C(=C\c3ccc(OC)cc3)C2=O)cc1 | > 100 | – | > 100 | > 100 | > 100 | > 100 | > 100 | > 100 | – | > 100 | > 100 | – | > 100 | > 100 | > 100 | > 100 | > 100 | > 100 | > 100 | –
